Test results published in a melting point compilation (Tetko et al.; mined from patent text by program, amines drawn as free bases though some values may be those of a salt).

melting point	Structure (SMILES)
121 to 123 °C	CCN(CC)C(=S)Oc1ccc2c(c1)Oc1ccccc1S2
221 to 222 °C	Cc1cc(C2(C(F)(F)F)CC(c3ccc(F)cc3)=NO2)ccc1N1C(=O)c2cccc([N+](=O)[O-])c2C1=O (stereo not drawn)
145 to 147 °C	COc1cc2c(c3c1OC(C)(C)C3)C(c1cccc(N3CCNS3)c1)=NC(C)(C)C2
164 to 166 °C	O=c1oc(=O)n(-c2cccc(F)c2)c2ncccc12
98 to 100 °C	CN(C)CCc1cn(Cc2ccccc2)c2ccc(C(C#N)S(=O)(=O)N(C)C(c3ccccc3)c3ccccc3)cc12 (stereo not drawn)
240 to 243 °C	COc1cc(OC)c2c3c(C(N)=O)cccc3n(Cc3ccccc3)c2c1
110 °C	CC#CCOc1cc(Oc2ccc(F)c(F)c2)ncn1
256 to 258 °C	CC(C)(C(=O)O)C1([N+](=O)[O-])OC2=CC=CC2=CC1c1ccccc1 (stereo not drawn)
135 to 138 °C	CN(CC(=O)O)C(=O)CC1=C(n2nc(-c3c(-c4ccccc4)nn4ccccc34)ccc2=O)CCCC1
86 to 90 °C	CCOC(=O)c1cccc(N2C(=O)C=CC2=O)c1C(=O)OCC
138 to 139 °C	O=S(=O)(Oc1ccc(-c2cc3ccc(OS(=O)(=O)c4ccccc4)cc3s2)cc1)c1ccccc1
79 to 80 °C	O=[N+]([O-])c1ccccc1NCCCCCCCCCCCCNc1ccccc1[N+](=O)[O-]
158 to 160 °C	Cc1cc(O)c(Oc2ccccc2C#N)cc1-n1cccc1
132 °C	Cc1ccnc(-c2cc(C)cc(C#N)n2)c1
112 to 115 °C	CC(=Cc1ccccc1)CN1CCc2nc(N)sc2CC1
129 to 132 °C	OP(O)C(NC(c1ccccc1)c1ccccc1)c1cccnc1 (stereo not drawn)
152 to 154 °C	O=C(c1ccc(Cl)cc1)c1cccc2c1CCCC2C(=O)O (stereo not drawn)
210 to 212 °C	CN1C(=O)c2cscc2N(C(=O)Cc2ccccc2)c2ccccc21
110 to 112 °C	COc1ccc2c(c1)c(OC(C)C)c(C(=O)O)n2C
151 to 154 °C	CCCCOC(=O)NC(=O)C1c2ccccc2Sc2ccccc21

melting point	Structure (SMILES)
259 to 263 °C	CC(C)N1C(Oc2ccccc2[N+](=O)[O-])=NS(=O)(=O)N=C1Oc1ccccc1[N+](=O)[O-]
135 to 136 °C	O=C(CCCl)Nc1ccc(C(=O)c2ccccc2)cc1
199 °C	CCOC(=O)c1cn(C2CC2)c2nc3cc(N4CCNC(c5ccc(OC)cc5)C4)c(F)cc3cc2c1=O (racemic)
127 to 130 °C	CCCCN(CCCC)CCCOc1ccc(-c2cn3cccc(C)c3n2)cc1OC
192 °C	CCOC(=O)COc1ccc(/C=C/c2nc3c(c(=O)n(CC)c(=O)n3CC)n2C)cc1
61 °C	CCCCCCCC(=O)OCc1ccccc1-c1nc(-c2cccc(OC)c2)n[nH]1
191 °C	O=C(CC(F)(F)F)NNc1nccc(-c2ccc(OC3CCOCC3)c(Cl)c2)c1Cl
217 to 218 °C	COC(=O)[C@@H](NC(=O)[C@H](CC(C)C)NC(=O)[C@@H](NC(=O)OCc1ccccc1)C(C)C)[C@@H](C)O
183 to 185 °C	O=C(c1ccc(F)cc1C(F)(F)F)N1Cc2cccnc2Nc2ccccc21
92 to 93 °C	Cc1ccc(C(=O)c2ccc(SCCO)cc2)cc1C
113 to 115 °C	COc1cccc(-c2cn(C)cc(-c3cccc(C(F)(F)F)c3)c2=O)c1
43 to 44 °C	CCOC(=O)/C=C(\C)c1cccc([N+](=O)[O-])c1
96 to 99 °C	CC(C)(C)NC(=O)[C@@H]1CCCN1C(=O)[C@@H](O)[C@H](Cc1ccccc1)NC(=O)[C@H](CC(N)=O)NCc1ccccc1
210 °C	CCCNC(=O)c1cnc2ccccc2c1O
102 to 106 °C	CS(=O)(=O)c1ccc(C(CC2CCCC2)C(=O)Nc2ccc3ccccc3n2)cc1[N+](=O)[O-] (stereo not drawn)
170 °C	CC(C)Oc1ccc2ccc(N)nc2n1
261 to 262 °C	O=C(O)c1cc2cc(OCCNC[C@H](O)COc3ccccc3)ccc2s1
72 to 74 °C	CC(=O)OC1SCC2C1N(Cc1ccccc1)C(=O)N2Cc1ccccc1 (stereo not drawn)
221 to 226 °C	O=C(NC1CC1)c1ccccc1C(c1ccc(O)cc1)c1ccc(O)cc1

Second part, the compound before the results:

Structure (SMILES)	melting point
OCCCN1CCN(C2=Nc3ccccc3Nc3ccsc32)CC1	172 to 173 °C
CCCCCCCCCCCCC1=C(O)C(=O)c2c(C)cccc2C1=O	92 to 93 °C
N#Cc1ccc(-c2ccc(-c3ccoc3)cc2)cc1	199 to 203 °C
O=C(NCCCCN1C2CCC1CN(c1ccc(Cl)cc1)C2)C(F)(F)F	83 to 85 °C
CCOC(=O)/C=C/c1ccc(OC)c(F)c1	39 to 41 °C
Cc1ccc2c(c1)c(C=O)c(Cl)n2C	120 to 121 °C
CCC1CC(=O)CC23CCN(C#N)C(Cc4ccc(OC)cc42)C13 (stereo not drawn)	141 to 145 °C
CC(C)Oc1nc(CO)sc1C(=O)NCc1ccc(Cl)cc1Cl	127 to 128 °C
Clc1ccn2cc(Cl)nc2c1	153 to 154 °C
Clc1ccc2ncsc2c1Cl	180 to 198 °C
Cn1ncc(Cl)c(NCCCCl)c1=O	42 to 46 °C
Cc1c(C(=O)Nc2ccc(N3CCC(N4CCOCC4)CC3)cc2C#N)cnn1-c1ccc(C(F)(F)F)cc1	210 to 212 °C
CCSCc1cc2cc(CN3CCOCC3)cc3c(=O)c(C(=O)NCc4ccc(Cl)cc4)cn1c23	177 to 178 °C
N#CCN(CC#N)c1nc(Cl)nc(Cl)n1	154 to 158 °C
CCCC(=O)c1cnc2ccc(O)cc2c1Cl	157 to 160 °C
Cc1oc2c(Br)cc(C=O)cc2c1C	126 °C
CCCCN1CC(O)N(c2cc(OC)c(Cl)cc2F)C1=S (stereo not drawn)	137 to 138 °C

Structure (SMILES)	melting point
CCOC(=O)c1cc(C(=O)OCC)n(C(C)c2ccccn2)n1 (stereo not drawn)	63 to 65 °C
COCc1cnc2nc(N)nc(N)c2n1	248 to 251 °C
C=CCOC(C(Cc1ccc(Cl)cc1)n1cncn1)C1(C)COCOC1 (stereo not drawn)	113 to 115 °C
Nc1ccc(C2CCSCC2)c(F)c1	96 to 98 °C
N#Cc1ccc2cc(Cc3cc4ccc(C#N)cc4o3)oc2c1	207 to 209 °C
CC1(C)Oc2ccc(C(=O)CO)cc2[C@H](NC(=O)c2ccc(F)c(Cl)c2)[C@@H]1O	200 °C
CCN(CCNS(C)(=O)=O)c1ccc(NC(C)=O)c(C)c1	104 to 105 °C
CCCCCCNC(=O)Oc1cccc(NC(=O)CC(C)(OC)OC)c1	110 °C
CCOC(=O)C(CCCCCCCCCCCCC(C(=O)O)C1CC1)C1CC1 (stereo not drawn)	36.9 to 38.2 °C
NN1CCNC1=C[N+](=O)[O-]	159 to 160 °C
N#Cc1nc2ncccc2[nH]1	200 °C
O=C(O)COCc1cc(Br)ccc1C(=O)O	194 to 196 °C
CCS(=O)c1nsc(NC(=O)NC)c1C(N)=O (stereo not drawn)	245 °C
ICCCC1(c2ccccc2)OCCO1	71 to 73 °C
OCc1nc2cc(Cl)cnc2[nH]1	209 to 211 °C
Cc1ccc(N(C)C2CCN(CC(=O)Nc3ccc(NS(C)(=O)=O)cc3)CC2)cc1	128 to 130 °C
Cc1cccc(C)c1CNc1cc(C(=O)N(C)C)nc2c(C)c(C)[nH]c12	315 °C
